Test results from PMC10709409, “Cryo-EM structures of human organic anion transporting polypeptide OATP1B1” (Cell Research, 2023).

Key:
OATP1B1 [1] = target: T1, OATP1B1 (Homo sapiens, UniProt Q9Y6L6); test: cryo-EM structure (inward-open, […] Å); also [3H]-E3S proteoliposome counterflow and DCF uptake inhibition; assay type: binding; parameters: gene SLCO1B1; human OATP1B1 with C-terminal tandem His and Flag tags
T1 sequence (Q9Y6L6 1-691): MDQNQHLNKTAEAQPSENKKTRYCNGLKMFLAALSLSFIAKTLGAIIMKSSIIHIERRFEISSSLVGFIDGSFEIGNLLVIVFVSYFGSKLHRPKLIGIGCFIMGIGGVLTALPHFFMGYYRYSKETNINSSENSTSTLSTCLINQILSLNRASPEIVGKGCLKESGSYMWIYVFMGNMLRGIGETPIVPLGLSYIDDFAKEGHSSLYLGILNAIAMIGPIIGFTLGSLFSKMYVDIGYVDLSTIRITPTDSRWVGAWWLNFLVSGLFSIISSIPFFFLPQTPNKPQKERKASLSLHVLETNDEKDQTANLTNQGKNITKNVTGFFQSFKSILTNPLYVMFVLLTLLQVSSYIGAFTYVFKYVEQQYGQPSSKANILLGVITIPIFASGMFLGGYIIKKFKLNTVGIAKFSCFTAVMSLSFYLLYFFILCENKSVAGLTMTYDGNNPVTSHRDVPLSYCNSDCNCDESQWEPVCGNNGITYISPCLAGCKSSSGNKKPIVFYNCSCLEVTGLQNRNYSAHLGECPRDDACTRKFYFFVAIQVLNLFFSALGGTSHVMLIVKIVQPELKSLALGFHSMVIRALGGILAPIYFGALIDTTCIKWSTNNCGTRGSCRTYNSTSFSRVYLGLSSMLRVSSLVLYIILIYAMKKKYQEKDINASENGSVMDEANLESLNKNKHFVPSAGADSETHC

OATP1B1 [2] = target: T1, OATP1B1; parameters: gene SLCO1B1
OATP1B1 [3] = target: T1, OATP1B1; test: cryo-EM structure (outward-open, […] Å); also cell DCF uptake assay; assay type: binding; parameters: gene SLCO1B1; human OATP1B1 with C-terminal tandem His and Flag tags

Row | SMILES | cryo-EM structure (outward-open, 3.73 Å); also DCF uptake inhibition in HEK293T (OATP1B1 [2]) | also measured
1 | C[C@]12CC[C@H]3c4ccc(OS(=O)(=O)O)cc4CC[C@@H]3[C@@H]1CCC2=O [E, estrone-3-sulfate] |  | cryo-EM structure (inward-open, 3.2 Å); also [3H]-E3S proteoliposome counterflow (OATP1B1 [1]): The EM density of E3S in OATP1B1–Ein is unambiguously resolved, allowing us to discern the pose of the E3S
2 | COc1ccc2c(O[C@@H]3C[C@H]4C(=O)N[C@]5(C(=O)NS(=O)(=O)C6CC6)C[C@H]5/C=C\CCCCN(C)C(=O)[C@@H]4C3)cc(-c3nc(C(C)C)cs3)nc2c1C [S, simeprevir] | Bilirubin and simeprevir occupy the major pocket located in the central cavity, while DCF binds to the minor pocket | 
3 | C=CC1=C(C)/C(=C/c2[nH]c(Cc3[nH]c(/C=C4\NC(=O)C(C)=C4C=C)c(C)c3CCC(=O)O)c(CCC(=O)O)c2C)NC1=O [B, bilirubin] | Bilirubin and simeprevir occupy the major pocket located in the central cavity, while DCF binds to the minor pocket | 
4 | O=C1OC2(c3cc(Cl)c(O)cc3Oc3cc(O)c(Cl)cc32)c2ccccc21 [D, 2′,7′-dichlorofluorescein] |  | cryo-EM structure (outward-open, 2.92 Å); also cell DCF uptake assay (OATP1B1 [3]): DCF extends towards a minor hydrophilic pocket within the interior of the CTD by forming hydrogen-bond interactions with N544 and S548
